From EP4737450A1 (Longwood Pharmaceuticals (Hangzhou) Co., Ltd, priority 2023, dated 2025)
Where “and” joins values, the source holds several entries; their conditions need not be identical. Identical values can stand only once.

molecular target: T1, plasma kallikrein (PKa) (Homo sapiens, UniProt P03952); assay: Inhibitory activity against plasma kallikrein in vitro (fluorescence intensity enzyme assay, Pro-Phe-Arg-AMC substrate); assay type: biochemical; details: PKa IC50, plasma kallikrein enzyme assay, Pro-Phe-Arg-AMC substrate
T1 construct: purchased R & D 2497-SE
Experimental: Test of the inhibitory activities of the compounds of the present invention against plasma kallikrein (PKa), KLK1 and FXIa in vitro.
The final concentrations of enzyme protein and Pro-Phe-Arg-AMC in the reaction mixture were 10 nM and 60 µM, respectively. The starting concentration of the positive reference substance Avoralstat was 100 nM, 3-fold dilution, 10 + 0 dose. 0.05 µL of compound in 100% DMSO was delivered to a 384-well plate by an acoustic liquid delivery technique (Echo665; nanoliter range). Compound duplex test. […] IC50 values and nonlinear regression curve fitting were obtained using GraphPad Prism software.

T1 sequence (P03952 391-638 limits assumed): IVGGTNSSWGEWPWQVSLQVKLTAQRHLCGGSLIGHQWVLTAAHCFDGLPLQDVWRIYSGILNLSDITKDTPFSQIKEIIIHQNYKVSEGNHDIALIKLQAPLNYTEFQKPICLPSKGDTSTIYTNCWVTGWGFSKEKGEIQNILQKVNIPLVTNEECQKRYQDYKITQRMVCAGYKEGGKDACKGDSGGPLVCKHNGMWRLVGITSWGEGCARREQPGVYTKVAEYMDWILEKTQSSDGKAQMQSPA
T1 sequence (P03952 20-390 partner limits assumed): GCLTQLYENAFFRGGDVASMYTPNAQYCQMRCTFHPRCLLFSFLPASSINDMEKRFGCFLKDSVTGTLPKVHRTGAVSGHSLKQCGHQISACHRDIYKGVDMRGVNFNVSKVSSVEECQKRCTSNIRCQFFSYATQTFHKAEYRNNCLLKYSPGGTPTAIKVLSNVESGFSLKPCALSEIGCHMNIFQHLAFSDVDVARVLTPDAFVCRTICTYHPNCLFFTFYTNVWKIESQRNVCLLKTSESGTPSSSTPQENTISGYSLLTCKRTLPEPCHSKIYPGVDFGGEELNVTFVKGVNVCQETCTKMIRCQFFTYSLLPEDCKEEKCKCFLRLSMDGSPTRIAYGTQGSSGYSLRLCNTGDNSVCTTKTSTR

Structure (SMILES)	IC50 [nM]
COCc1nn(Cc2ccc(Cn3ccccc3=O)cc2)cc1C(=O)NCc1nccc(SC)c1F [Compound 132]	7.29
COCC1(F)CN(Cc2nn(Cc3ccc(Cn4ccccc4=O)cc3)cc2C(=O)NCc2nccc(OC)c2F)C1 [Compound 205, 3-((3-fluoro-3-(methoxymethyl)azetidin-1-yl)methyl)-N-(3-fluoro-4-methoxypyridin-2-yl)methyl]	8.98
N/C(=N\O)c1ccc(CNC(=O)c2cnn(Cc3ccc(CC4CC4)cc3)c2)cc1 [Compound 348, (Z)-1-(4-(cyclopropylmethyl)benzyl)-N-(4-(N'-hydroxycarbamoyl)benzyl)-1H-pyrazole-4-carboxamide]	3.75
O=C(NCc1ncc2c(n1)CNC2)c1cn(Cc2ccc(Cn3ccccc3=O)cc2)nc1C(F)(F)F [Compound 156]	669

same assay, conditions: plasma kallikrein enzyme assay, Pro-Phe-Arg-AMC substrate; read-out: PKa IC50

Structure (SMILES)	IC50
O=C(NCc1cc2cnccc2[nH]1)c1cn(Cc2ccc(Oc3ccccc3)cc2)nc1C(F)(F)F [Compound 115]	> 100 nM
N=C(N)c1ccc(CNC(=O)c2cn(Cc3ccc(CC4CC4)cc3)nc2C(F)(F)F)c(F)c1 [Compound 275]	56 nM
COc1ccc(F)c(CNC(=O)c2cn(Cc3ccc(Cn4cc(F)ccc4=O)c(F)c3)nc2C2CC(F)(F)C2)c1F [Compound 228]	16.4 nM
Cc1cc(N)nc(C)c1CNC(=O)c1nc(Cc2ccc(Cn3ccccc3=O)cc2)ns1 [Compound 84]	64.7 nM
Cc1nc(N)nc(C)c1CNC(=O)c1ncn(Cc2ccc(Cn3cc(F)ccc3=O)cc2)n1 [Compound 26]	699 nM
COc1ccc(F)c(CNC(=O)c2cn(Cc3ccc(Cn4cc(F)ccc4=O)cc3)nc2C2CC(F)(F)C2)c1F [Compound 209, N-(2,6-difluoro-3-methoxybenzyl)-3-(3,3-difluorocyclobutyl)-1-(4-((5-fluoro-2-oxopyridin-1(2H)yl)methyl)benzyl)-1H-pyrazole-4-carboxamide]	10.6 nM and > 100 nM
COc1ccnc(CNC(=O)c2cn(Cc3ccc(Cn4ccccc4=O)cc3)nc2CN2CCC(OC)CC2)c1F [Compound 201]	10.8 nM
Cc1cc(N)nc(C)c1CNC(=O)c1nnc(Cc2cn3cc(C4CC4)ccc3n2)o1 [Compound 17]	36.2 nM
COc1ccnc(CNC(=O)c2cn(Cc3ccc(Cn4ccccc4=O)cc3)nc2COC2COC2)c1F [Compound 249]	7.89 nM
N=C(N)c1ccc(CNC(=O)c2cn(Cc3ccc(Oc4ccccc4)cc3)nc2C(F)(F)F)cc1 [Compound 134]	4.47 nM
Nc1ncc2cc(CNC(=O)c3cnn(Cc4ccc(Cn5ccccc5=O)cc4)c3)ccn12 [Compound 187]	10.8 nM
COc1ccc(F)c(CNC(=O)c2cn(Cc3ccc(Cn4cc(F)ccc4=O)cc3)nc2N2CC(F)(F)C2)c1F [Compound 281]	24.9 nM
COCc1nn(Cc2ccc(Cn3ccccc3=O)cc2)cc1C(=O)NCc1c(Cl)c2ccncc2n1C [Compound 154]	68.8 nM
COCc1nn(Cc2ccc(Cn3ccccc3=O)cc2)cc1C(=O)NCc1cc2ccncc2n1C [Compound 135]	131 nM
COc1ccnc(CNC(=O)c2cn(Cc3ccc(Cn4ccccc4=O)cc3)nc2CN2CCCC2=O)c1F [Compound 169]	11.9 nM
COc1ccc(F)c(CNC(=O)c2cn(Cc3ccc(Cn4cc(F)ccc4=O)cc3)nc2[C@H](C)C2COC2)c1F [Compound 179]	15 nM
COCc1nn(Cc2ccc(-n3ccccc3=O)cc2)cc1C(=O)NCc1cc2ccncc2[nH]1 [Compound 97]	503 nM
COCc1cn(Cc2ccc(Cn3ccccc3=O)cc2)nc1C(=O)N[C@@H]1CCc2c1ncn2C [Compound 59]	> 100 nM
COc1ccnc(CNC(=O)c2cn(Cc3ccc(Cn4ccccc4=O)cc3)nc2OCc2ccccn2)c1F [Compound 229]	22.9 nM
Nc1cc2c(cn1)[C@@H](NC(=O)c1ncn(Cc3cn4cc(C5CC5)ccc4n3)n1)CC2 [Compound 46]	> 100 nM
O=C(NCc1nccc(-n2nccn2)c1F)c1cn(Cc2ccc(Cn3ccccc3=O)cc2)nc1C1COC1 [Compound 352]	90 nM

Structure (SMILES)	IC50
COCc1nn(Cc2ccc(CN3CCCCCC3)cc2)cc1C(=O)NCc1nccc(OC)c1F [Compound 102]	> 100 nM
COCc1nn(Cc2ccc(Cn3ccccc3=O)cc2)cc1C(=O)NCc1c(C)cncc1C [Compound 114]	> 100 nM
Cc1nc(N)ncc1CNC(=O)c1ncn(Cc2ccc(Cn3cc(F)ccc3=O)cc2)n1 [Compound 31]	> 1000 nM
COCc1nn(Cc2ccc(CN3C(=O)C4(CC4)c4ccc(F)cc43)cc2)cc1C(=O)NCc1nccc(OC)c1F [Compound 138]	> 1000 nM
COc1ccnc(CNC(=O)c2cn(Cc3ccc(Cn4ccccc4=O)cc3)nc2CN2C[C@H](C)O[C@@H](C)C2)c1F [Compound 309]	273 nM
COc1ccnc(CNC(=O)c2cn(Cc3ccc(Cn4ccccc4=O)cc3)nc2COCCN(C)C)c1F [Compound 191]	16.3 nM
COc1ccc(F)c(CNC(=O)c2cn(Cc3ccc(Cn4ccccc4=O)cc3)nc2COC2CCC2)c1F [Compound 240]	12.6 nM
C#Cc1nn(Cc2ccc(Cn3ccccc3=O)cc2)cc1C(=O)NCc1nccc(OC)c1F [Compound 85]	58.7 nM
O=C(NCc1nccc(C2CC2)c1F)c1cn(Cc2ccc(CC3CC3)cc2)nc1C1COC1 [Compound 343]	> 1000 nM
COCc1nn(Cc2ccc(Cn3c(=O)ccc4ccccc43)cc2)cc1C(=O)NCc1nccc(OC)c1F [Compound 159]	93.8 nM
COc1ccc(F)c(CNC(=O)c2cn(Cc3ccc(Cn4ccccc4=O)cc3)nc2N2CC(C)(OC)C2)c1F [Compound 291]	5.9 nM
O=C(NCc1nccc(C2CC2)c1F)c1cn(Cc2ccc(Cn3ccccc3=O)cc2)nc1N1CC(F)(F)C1 [Compound 272]	42 nM
COc1ccc(F)c(CNC(=O)c2cn(Cc3ccc(Cn4cc(F)ccc4=O)cc3)nc2COC2(C)COC2)c1F [Compound 236]	16.6 nM
CCn1cnc2c1CC[C@@H]2NC(=O)c1cn(Cc2ccc(Cn3ccccc3=O)cc2)nc1COC [Compound 131]	27.9 nM
COc1ccnc(CNC(=O)c2cn(Cc3ccc(Cn4ccccc4=O)cc3)nc2-c2cnc(O)nc2)c1F [Compound 165]	34.5 nM
Cc1cc(N)nc(C)c1CNC(=O)c1ncn(Cc2ccc(CN3CCCCC3=O)cc2)n1 [Compound 78]	3.72 nM
Cc1cnn(C)c1-c1nn(Cc2ccc(Cn3ccccc3=O)cc2)cc1C(=O)NCc1nccc(N(C)C)c1F [Compound 166]	4.59 nM
COCC1(F)CN(Cc2nn(Cc3ccc(Cn4cc(F)ccc4=O)cc3)cc2C(=O)NCc2c(F)ccc(OC)c2F)C1 [Compound 220]	12 nM
Cn1cnc2c1CC[C@H]2NC(=O)c1ncn(Cc2ccc(CN3CCCCC3=O)cc2)n1 [Compound 79]	> 100 nM
COc1ccnc(CNC(=O)c2ncn(Cc3ccc(Cn4cc(F)ccc4=O)cc3)n2)c1F [Compound 32]	> 100 nM
COc1ccc(F)c(COC(=O)c2cn(Cc3ccc(Cn4cc(F)ccc4=O)cc3)nc2NC2(C)COC2)c1F [Compound 237]	2.78 nM

Structure (SMILES)	IC50
COCc1nn(Cc2ccc(Cn3ccccc3=O)cc2)cc1C(=O)NCc1cc2cnccc2[nH]1 [Compound 108]	36.8 nM
O=C(NCc1cc2cnccc2[nH]1)c1nc(Cc2ccc(Cn3ccccc3=O)cc2)ns1 [Compound 122]	124 nM
COc1ccc(F)c(CNC(=O)c2cn(Cc3ccc(Cn4cc(F)ccc4=O)cc3)nc2[C@@H](C)C2COC2)c1F [Compound 180]	7.88 nM
N=C(N)c1cnc(CNC(=O)c2cnn(Cc3ccc(CC4CC4)cc3)c2)nc1 [Compound 329]	42.4 nM
Nc1nnc(CNC(=O)c2cnn(Cc3ccc(Cn4ccccc4=O)cc3)c2)s1 [Compound 30]	> 1000 nM
COCc1nn(Cc2ccc(N3CC4C(C3)C4(F)F)cc2C#N)cc1C(=O)NCc1nc2c(s1)CNCC2 (stereo not shown) [Compound 129]	406 nM
COCc1nn(Cc2ccc(Oc3ccccc3)cc2)cc1C(=O)NCc1cc2ccncc2[nH]1 [Compound 185]	84.5 nM
COc1ccnc(CNC(=O)c2cc(Cc3ccc(Cn4ccccc4=O)cc3)cn2C)c1F [Compound 88]	20.1 nM
COc1ccnc(CNC(=O)c2cn(Cc3ccc(Cn4ccccc4=O)cc3)nc2COC2CCOCC2)c1F [Compound 295]	16.3 nM
COc1ccnc(CNC(=O)c2cn(Cc3ccc(Cn4ccccc4=O)cc3)nc2N2CC(C)(OC)C2)c1F [Compound 232]	7.15 nM
COCc1nn(Cc2ccc(Oc3ccccc3)cc2)cc1C(=O)NCc1nccc(OC)c1F [Compound 117]	> 1000 nM
CC(C)Cc1ccc(Cn2cc(C(=O)NCc3ccc(C(=N)N)cc3)cn2)cc1 [Compound 312]	2 nM
CC(C)CNc1ccnc(CNC(=O)c2cn(Cc3ccc(Cn4ccccc4=O)cc3)nc2C2COC2)c1F [Compound 269]	> 1000 nM
COc1ccc(F)c(CNC(=O)c2cn(Cc3ccc(Cn4cc(F)ccc4=O)c(F)c3)nc2C2CC(OC)C2)c1F (stereo not shown) [Compound 227]	9.15 nM
O=C(NCc1nccc(NCC2CC2)c1F)c1cn(Cc2ccc(Cn3ccccc3=O)cc2)nc1C1COC1 [Compound 276]	> 1000 nM
O=C(NCc1nccc(NC2COC2)c1F)c1cn(Cc2ccc(Cn3ccccc3=O)cc2)nc1C1COC1 [Compound 331]	> 1000 nM
COCc1nn(Cc2ccc(N3CC4C(C3)C4(F)F)cc2C#N)cc1C(=O)NCc1cc2cnccc2[nH]1 (stereo not shown) [Compound 86]	21.2 nM
COc1ccc(F)c(CNC(=O)c2cn(Cc3ccc(Cn4ccccc4=O)cc3)nc2N2CC(F)(F)C2)c1F [Compound 233]	9.73 nM
COc1ccnc(CNC(=O)c2[nH]cc(Cc3ccc(Cn4ccccc4=O)cc3)c2C)c1F [Compound 151]	544 nM
COc1ccnc(CNC(=O)c2cn(Cc3ccc(Cn4ccccc4=O)cc3)nc2C(F)(F)F)c1F [Compound 90]	3.09 nM
COc1ccnc(CNC(=O)c2cn(Cc3ccc(Cn4ccccc4=O)cc3)nc2C2CC2(F)F)c1F (stereo not shown) [Compound 216]	2.64 nM
